# Laboratory results reported in PMC12753884, “Naringenin targets FimZ to regulate type I fimbriae and reduce the virulence of Salmonella” (Frontiers in Cellular and Infection Microbiology, 2025).
# How the values were obtained:
# Format in all cases: binding
# [1] = molecular target: T1, FimZ (Salmonella enterica, UniProt P26319, I135A); experiment: SPR (Biacore X100, His-antibody capture on CM5 chip)
# T1 construct: Flag-FimZ-His mutant
# T1 sequence (P26319 1-210 I135A): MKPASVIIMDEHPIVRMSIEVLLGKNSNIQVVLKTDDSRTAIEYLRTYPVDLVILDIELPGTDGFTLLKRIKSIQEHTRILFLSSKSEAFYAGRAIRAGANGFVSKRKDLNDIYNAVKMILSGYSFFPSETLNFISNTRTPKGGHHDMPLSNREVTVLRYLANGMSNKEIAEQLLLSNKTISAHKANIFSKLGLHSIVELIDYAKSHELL
# [2] = molecular target: T2, FimZ (Salmonella enterica, UniProt P26319, T138A); experiment: as above
# T2 construct: Flag-FimZ-His mutant
# T2 sequence (P26319 1-210 T138A): T1 sequence (P26319 1-210 I135A)
# [3] = molecular target: T3, FimZ (Salmonella enterica, UniProt P26319); experiment: SPR (Biacore X100, His-antibody capture on CM5 chip); EMSA support
# T3 construct: Flag-FimZ-His, whole fimZ fragment of SL1344 in pET-28a
smiles,measurement,setting,value
"O=C1C[C@@H](c2ccc(O)cc2)Oc2cc(O)cc(O)c21 [Nar, naringenin]",Kd,[1],152 µM
same,Kd,[2],412 µM
same,Kd,[3],33.9 µM
